Experimental data published in article PMC12031237, “Toxicity Assessment of (4Z)-Lachnophyllum and (4Z,8Z)-Matricaria Lactones: Implications for Environmental Safety of Bioherbicides” (Toxins, 2025).
In brackets after ≈: the same amount, converted by molar mass. Several values for one entry are separate records, joined by “and”; a condition that tells them apart may be missing. Identical values can stand only once. Entries after “also recorded” stand apart in the source; their conditions may differ. Like-named read-outs stand apart in the source and are kept apart here.

Tests used:
C. elegans = test: Nematode survival bioassay in soil, ASTM E2172-01; type: in vivo; settings: for mortality: 24 h exposure, across tested concentrations (1.73 to 94 mg L^−1); for Test Score: N2, Bristol variant (wild type), Caenorhabditis elegans, in vivo, 24 h
Description: The nematode bioassay was carried out using the Caenorhabditis elegans wild-type strain N2, Bristol variant, according to the ASTM E2172—01 Standard Method (2014). Culture was maintained on NGM (nematode growth media) plates seeded with Escherichia coli (uracil-deficient OP50 strain) and stored at 20 °C. The tests were conducted using age-synchronized adult nematodes, obtained by lysing gravid nematodes with a bleaching solution (10 g/L NaOH, 10.5 g/L NaOCl), followed by centrifugation and washing with an M9 mineral medium (2.2 mM KH2PO4, 4.2 mM Na2HPO4, 85.6 mM NaCl, and 1 mM MgSO4). The synchronized nematodes were then transferred to NGM agar plates and left to recover overnight.
Soil samples (2.33 g) were hydrated to 35–45% of their dry weight using K-medium in centrifuge tubes. Ten worms were transferred to each tube and exposed to the soil samples for 24 h at 20 °C. […] Treatments were performed in triplicate, with worms kept unfed during the exposure period. Nematodes were extracted by centrifugation (2000 rpm, 2 min) using silica gel (Ludox TM 50, Sigma-Aldrich, St. Louis, MO, USA) with a specific density of 1.13 g/mL. The supernatant was then transferred to 100 mm glass Petri dishes and washed with Keller (K) medium. Extracted individuals were counted under a microscope (40× magnification), with mortality as the measured endpoint. Test validity required a minimum of 80% nematode recovery and 90% survival in the control group.

R. subcapitata = test: Algal growth inhibition test, ISO 8692; settings: for Test Score / EC10 (growth inhibition): 72 h exposure; for EC50 / inhibition at 3.125 µg/mL: Raphidocelis subcapitata; for EC50: read-out: EC50 (growth inhibition); for inhibition at 3.125 µg/mL: read-out: growth inhibition
Description: The algal growth inhibition test (72 h) with R. subcapitata was carried out according to ISO 8692 [58]. The algal density was determined by spectrophotometric analysis (DR5000, Hach Lange GbH, Weinheim, Germany) at 670 nm. The concentrations tested correspond to 0.19, 0.39, 0.78, 1.56, and 3.12 mg L^−^1 and a negative control of 0 mg L^−^1. The growth inhibition was calculated as the difference in growth at the end of the test of the sample and the control group. Toxicity tests were carried out in triplicate.
(§1) Data analysis was conducted using RStudio for Windows (Version 2024.09.1). Dose–response models were applied to estimate the effective concentrations (EC10 and EC50) for the tested endpoints using the “drc” package. For D. magna, the data were modeled with a binomial log-logistic approach, whereas data for R. subcapitata, A. fischeri and L. sativum were fitted to log-logistic models with the upper limit constrained to 100. Furthermore, to ensure assay sensitivity and validity, a positive control exposed to potassium dichromate for the aquatic species and copper chloride for C. elegans was tested under the same experimental conditions.

[1] = Stability (photodegradation) in ISO 8692:2012 medium, quantified by HPLC; type: physicochemical; settings: 20 °C, 254 nm light
Description: For the photodegradation assays, 3 mg of MAT and 3 mg of LAC were separately dissolved in 150 µL of DMSO and added to 3 mL of International Organization for Standardization (ISO) 8692:2012 medium. The solutions were exposed to 254 nm of light for up to 16 days. At specific time intervals (1, 2, 3, 6, and 16 days), 400 µL of the solutions were collected and analyzed by TLC using n-hexane/EtOAc (75:25, v/v) as the eluent, with MAT and LAC standard samples serving as references.
HPLC analysis was performed in isocratic mode and with the same ISO medium solutions, using MeCN–H2O (0.1% v/v formic acid) at a 60:40 (v/v) ratio as the mobile phase, with a flow rate of 0.5 mL/min. Detection was carried out at 220 nm with a 20 μL injection loop, monitoring the chromatogram for over 50 min to identify potential degradation products. Each sample was analyzed in triplicate. Control solutions containing only the culture medium and DMSO (without MAT or LAC) were also analyzed under identical conditions to ensure specificity.
Calibration curves for MAT and LAC were prepared by injecting standard samples at concentrations ranging from 0.022 to 2.2 mg for MAT and 0.004 to 2.2 mg for LAC. These standards were used to optimize the method and quantify the degradation products.

D. magna = test: Crustacean immobility acute test, ISO 6341; type: in vivo, Daphnia magna; settings: for immobilization: 6.91 mg L^−1, 24 h exposure; for EC50: Daphnia magna, read-out: EC50 (immobilization); for Hazard Ranking: GHS ranking of 48 h EC50, this study
Description: The immobility acute test (48 h) with D. magna was conducted according to ISO 6341 [60]. D. magna was selected from laboratory stock cultures at the Hygiene Laboratory of the Department of Biology of the University of Naples Federico II, placed in ISO medium, and fed daily with the microalgae R. subcapitata. For the test, five neonates (third brood, <24 h old) were exposed in 10 mL of ISO medium to the following corresponding concentrations: 0.22, 0.43, 0.86, 1.73, 3.46, 6.91, 13.83, 27.65, and 55.30 mg L^−^1 and a negative control of 0 mg L^−^1. Each concentration had 4 replicates, and immobility was assessed after 24 and 48 h of exposure.
as §1

L. sativum = test: Plant germination and growth phytotoxicity test; type: in vivo, Lepidum sativum; settings: 72 h exposure; for germination: tested concentrations up to 94 mg L^−1; for EC50: Lepidium sativum, read-out: EC50 (shoot length)
Description: Lepidum sativum seeds were purchased from Microbiotests (Gent, Belgium) and were used for the phytotoxicity test. Tests were conducted following the standard method. Seeds (n = 10) were placed in 10 g of soil medium and exposure was carried out in triplicates. […] Germination (%) and root elongation inhibition were combined to calculate the germination index (GI, %).

[2] = Hazard classification and weight score over the test battery; settings: for hazard classification: classes I (no acute hazard) to V (very high acute hazard); for Weight Score [%]: overall, all tests performed
Description: When possible, the EC50 values derived from the tests were used for toxicity classification following the methodology in [65]. Compounds were categorized into five hazard classes, ranging from Class I (no acute hazard) to Class V (very high acute hazard). Additionally, weight scores for each test were calculated to quantify the relative level of toxicity, with scores assigned as follows: 0 (no significant toxic effect), 1 (significant toxic effect), 2 (toxic effect), and 3 (100% toxic effect). The weight score for each compound, based on the tests performed, was expressed as a percentage.

A. fischeri = test: Bioluminescence (light) inhibition test, ISO 11348-3; settings: for EC50 / inhibition at 3.125 µg/mL: Aliivibrio fischeri, 0.5 h; for EC50: read-out: EC50 (light inhibition), 30 min exposure; for inhibition at 3.125 µg/mL: read-out: light inhibition
Description: The bioluminescence inhibition test (30 min) was detected with the A. fischeri (NRRLB-11177) supplied by MicroBioTest, Gent, Belgium, and according to ISO 11348-3 [59]. The bioluminescence was determined by the luminometer Microtox (Model 500 analyzer, New Castle, DE, USA) at 490 nm. To provide the required osmotic pressure for the bacterium, the stock solution was diluted to perform the test in saline water solution (2% sodium chloride, NaCl). The concentrations tested correspond to 0.19, 0.39, 0.78, 1.56, and 3.12 mg L^−^1 and a negative control of 0 mg L^−^1. Toxicity tests were performed in triplicate with a control, and the percentage luminescence inhibition was expressed as the ratio of the decrease in bacterial light production to the remaining light.
as §1

[3] = standard error in brackets, n = 3
[4] = 30 min exposure, standard error in brackets, n = 3
[5] = estimated from the model, outside of the tested concentrations

CCCC#C/C=C1/C=CC(=O)O1 [LAC, (4Z)-lachnophyllum lactone]
mortality (C. elegans): no mortality
Test Score (C. elegans): 0
Test Score (R. subcapitata): 1
EC10 (growth inhibition) (R. subcapitata; [3]): 0.304 mg L^−1 and 0.304 (0.125) mg L^−1
EC50 (R. subcapitata; 72 h): 9.88 µg/mL (≈ 60.9 µM)
inhibition at 3.125 µg/mL (R. subcapitata; 72 h): 36%
Degraded Compound (%) ([1]; exposition time 1 day): 8.5%
Degraded Compound (%) ([1]; exposition time 2 days): 19.23%
Degraded Compound (%) ([1]; exposition time 3 days): 26.58%
Degraded Compound (%) ([1]; exposition time 6 days): 28.24%
immobilization (D. magna): 100%
EC10 (immobilization) (D. magna; 24 h exposure): 1.67 (0.313) mg L^−1
EC10 (immobilization) (D. magna; 48 h exposure): 1.499 mg L^−1 and 1.49 (1.063) mg L^−1
EC50 (immobilization) (D. magna; 48 h exposure): 1.728 µg/mL (≈ 10.7 µM)
Test Score (D. magna; 48 h exposure): 3
EC50 (D. magna; 24 h, 24 h exposure): 2.44 µg/mL (≈ 15 µM)
EC50 (D. magna; 48 h, 48 h exposure): 1.72 µg/mL (≈ 10.6 µM)
Hazard Ranking (D. magna): *** (toxic (<1 mg L^−1 ≤ 10 mg L^−1))
EC10 (shoot length) (L. sativum): 70.87 mg L^−1 and 70.87 (195.32) mg L^−1
Test Score (L. sativum): 3
germination (L. sativum): no effects; also recorded: unaffected
EC50 (L. sativum): 85.9 µg/mL (≈ 530 µM)
hazard classification [2]: Class II
Weight Score [%] [2]: 53.33%
Test Score (A. fischeri; 30 min exposure): 1
EC50 (light inhibition) (A. fischeri; 30 min exposure, estimated from the model, outside of the tested concentrations): 8.078 µg/mL (≈ 49.8 µM)
EC10 (light inhibition) (A. fischeri; [4]): 0.524 mg L^−1 and 0.524 (0.212) mg L^−1
EC50 (A. fischeri; [5]): 8.07 µg/mL (≈ 49.8 µM)
inhibition at 3.125 µg/mL (A. fischeri): < 40%

C/C=C\C#C/C=C1/C=CC(=O)O1 [MAT, (4Z,8Z)-matricaria lactone]
mortality (C. elegans): no mortality
Test Score (C. elegans): 0
growth inhibition (average) (R. subcapitata; 72 h, concentrations 0.19 to 1.56 mg L^−1, negative = stimulation): approximately −10%
Test Score (R. subcapitata): 0
EC10 (growth inhibition) (R. subcapitata; [5]): 3.417 mg L^−1 and 3.417 (0.620) * mg L^−1
EC50 (R. subcapitata; 72 h): 4.52 µg/mL (≈ 28.2 µM)
inhibition at 3.125 µg/mL (R. subcapitata; 72 h): -2.4%
Degraded Compound (%) ([1]; exposition time 1 day): 90% and 89.74%
Degraded Compound (%) ([1]; exposition time 2 days): 90.06%
Degraded Compound (%) ([1]; exposition time 3 days): 90.38%
Degraded Compound (%) ([1]; exposition time 6 days): 94.55%
immobilization (D. magna): 100%
EC10 (immobilization) (D. magna; 24 h exposure): 3.11 (1.894) mg L^−1
EC10 (immobilization) (D. magna; 48 h exposure): 1.215 mg L^−1 and 1.21 (0.294) mg L^−1
EC50 (immobilization) (D. magna; 48 h exposure): 2.239 µg/mL (≈ 14 µM)
Test Score (D. magna; 48 h exposure): 3
EC50 (D. magna; 24 h, 24 h exposure): 3.56 µg/mL (≈ 22.2 µM)
EC50 (D. magna; 48 h, 48 h exposure): 2.23 µg/mL (≈ 13.9 µM)
Hazard Ranking (D. magna): *** (toxic (<1 mg L^−1 ≤ 10 mg L^−1))
EC10 (shoot length) (L. sativum): 38.48 mg L^−1 and 38.48 (23.979) mg L^−1
Test Score (L. sativum): 2
germination (L. sativum): no effects; also recorded: unaffected
EC50 (L. sativum): 82.3 µg/mL (≈ 514 µM)
hazard classification [2]: Class II
Weight Score [%] [2]: 46.66%
Test Score (A. fischeri; 30 min exposure): 2
EC10 (light inhibition) (A. fischeri; [4]): 0.063 mg L^−1 and 0.063 (0.013) mg L^−1
EC50 (A. fischeri; [3]): 0.642 µg/mL (≈ 4.01 µM)
inhibition at 3.125 µg/mL (A. fischeri): ~80%
